In US10238738B2, “Methods of modulating immune system responses” (priority 2014, dated 2019):

What was measured:
TIFA [1] = target: T1, TIFA (Homo sapiens, UniProt Q96CG3); test: Phosphopeptide analysis of FLAG-TIFA by LC-MS/MS; type: cell-based; settings: HBP or mock-treated cells stably expressing FLAG-TIFA; FIG. 19a
T1 construct: expressed in transfected cells; endogenous TIFA knocked down with a 3' UTR shRNA
T1 sequence (Q96CG3 1-184): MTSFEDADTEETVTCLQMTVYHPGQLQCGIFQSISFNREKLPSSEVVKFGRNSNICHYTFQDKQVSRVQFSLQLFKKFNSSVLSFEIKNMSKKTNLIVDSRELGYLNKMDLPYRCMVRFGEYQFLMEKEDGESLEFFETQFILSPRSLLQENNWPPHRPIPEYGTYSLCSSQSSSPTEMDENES
Method: (§1) FLAG-TIFA was immunoprecipitated from Jurkat cells using FLAG M2 agarose beads (Sigma) as described previously (Chen and Gingras, 2007). Briefly, cells were lysed in 50 mM Hepes-KOH pH 8.0, 100 mM KCl, 2 mM EDTA, 0.1% NP40, 10% glycerol. Soluble cell lysates were pre-cleared for 2 hr with mouse IgG agarose (Sigma) and immunoprecipitated overnight at 4° C. Proteins eluted using 0.5 M NH4OH pH 11 (for mass-spectrometry), or 3× FLAG-peptide (Sigma) (immunoblot analysis). TRAF6 was immunoprecipitated from Jurkat cell lysates using rabbit anti-TRAF6 (sc-72201; Santa cruz) conjugated to protein A/G PLUS-agarose (Santa cruz) and eluted in sample buffer. Whole cell lysates or immunoprecipitation eluates were immunoblotted with the following antibodies: M2 anti-FLAG (Sigma), rabbit anti-FLAG (Sigma), mouse anti-TRAF6 (sc-8409; Santa Cruz), rabbit anti-TRAF2 (sc-876), mouse anti-ubiquitin (sc-8017; Santa cruz), mouse anti-beta actin (Sigma). For phosphopeptide analysis, FLAG-TIFA was excised from the gel, subject to in-gel trypic digestion, followed by treatment with cyanogen bromide (Sigma) in 70% TFA and analyzed by LC/MS/MS. Data were analyzed by Scaffold PTM (Proteome).

TIFA [2] = target: T1, TIFA; test: Native PAGE analysis of FLAG-TIFA oligomerization; type: cell-based; settings: clear native-PAGE or blue native PAGE; Jurkat cells; FIG. 20
Excerpt: For BlueNative PAGE, cells were lysed in 1% NP-40, 0.1% Triton-X100, 0.1% SDS and soluble lysate separated by gradient PAGE (8-16%) using ExpressPlus System™ (GenScript) as described previously (Kofoed and Vance, 2013). For ClearNative PAGE, cells were lysed in 1% NP-40, 0.1% Trition-X100, 0.1% SDS and soluble lysate separated on 12.5% tris-glycine polyacrylamide gels.

[3] = tested on: NF-κB dependent genes in Jurkat T cells; test: Microarray, qRT-PCR and NF-κB subunit ELISA in Jurkat T cells; type: cell-based, human; settings: compared with flagellin or TNFα, FIG. 2b,c
Method: RNA was isolated using an RNeasy kit (Qiagen) per manufacturers' protocol. cDNA was synthesized using the iScript cDNA synthesis kit (Bio-Rad) and treated with TURBO DNase (Life Technologies). cDNA was amplified using SsoAdvanced SYBR Green (Bio-Rad) using a C1000 thermal cycler (Bio-Rad). Target genes were amplified using the following primers: […]
(§2) Relative expression was calculated using the 2^−ΔΔCT method following normalization of target gene abundance to GAPDH. Quantitative measurements of cytokines were performed using ELISA kits form R&D Systems (KC, IL-23, IFN-β) or BD Biosciences (IL-1β, IL-8, IL-6, IL-12p70, TNF-α). Nuclear extracts were prepared from Jurkat T cells and NF-κB subunit binding was determined using the TransAM® Transcription Factor ELISA (Active Motif). Microarray
Two clonal populations of Jurkat cells were stimulated for 2 hr with purified HBP-containing supernatants, or supernatants from M. catarrhalis. RNA was extracted using RNeasy (Qiagen), labeled using Illumina TotalPrep RNA Amplification kit (Ambion) and analyzed on a human HT-12 v4.0 Beadchip (Illumina). Data normalization and analysis were provided as a service by the Bioinformatics Department of the University Health Network (UHN) Micro array Centre, Toronto, ON. Data was analyzed using Genespring v11.0.1. […]

TIFA-TRAF6 interaction = target: T2, TIFA-TRAF6 interaction (Homo sapiens, UniProt Q96CG3); test: FLAG-TIFA immunoprecipitation and immunoblot for TRAF6; type: cell-based
T2 construct: expressed in transfected cells; endogenous TIFA knocked down with a 3' UTR shRNA; TRAF6 endogenous
T2 sequence (Q96CG3 1-184): T1 sequence (Q96CG3 1-184)
Method: as §1

THP-1 macrophages = test: qRT-PCR analysis of THP-1 macrophages treated with synthetic HBP and TLR ligands; type: cell-based, human; settings: 4 hr, with PAM3CSK4 or flagellin; FIG. 3c
Method: FIG. 3(c), qRT-PCR analysis of THP-1 macrophages treated with synthetic HBP (sHBP), PAM3CSK4 (PAM3), or flagellin (FLAG) for 4 hr, expressed as fold increase relative to untreated after normalization to GAPDH. Data represent ≥3 independent experiments performed in duplicate. All error bars±s.e.m. *P<0.05, **P<0.01 by ANOVA.
THP-1 cells were maintained in RPMI supplemented with 10% FBS and 1% glutamax and differentiated to macrophages with 50 ng/ml PMA for 48 hr, followed by a 48 hr rest period prior to stimulation. […] Results are expressed as fold change compared to untreated.

TIFA [4] = target: T1, TIFA; test: Confocal microscopy of FLAG-TIFA with TRAF6 or Lamp2; type: cell-based
Method: For visualization of FLAG-TIFA and TRAF6, cells were stained overnight at 4° C. with Alexa Fluor-488 conjugated rabbit anti-FLAG (Cell Signaling) and mouse anti-TRAF6 (sc-8409; Santa Cruz), followed by 1 hour with Alexa Fluor-594 conjugated anti mouse (Life Technologies). For visualization of FLAG-TIFA and Lamp2, cells were stained overnight at 4° C. with mouse anti-FLAG (M2; Sigma) and rabbit anti-Lamp2 (ab37024; Abcam), followed by 1 hour with Alexa Fluor-488 conjugated anti-mouse (Life Technologies) and Alexa Fluor-594 conjugated anti-rabbit (Life Technologies). Slides were visualized using an LSM510 (Carl Zeiss) confocal microscope. For analysis, images were processed using ImageJ software

TRAF2 = test: FLAG-TIFA immunoprecipitation and immunoblot for TRAF2; type: cell-based, human; settings: HBP treatment; FIG. 16a
Method: as §1

[5] = tested on: primary human macrophages, neutrophils, and immortalized epithelial cells; test: Cytokine production in primary human cells (ELISA); type: cell-based
Method: as §2
Whole blood was taken by venipuncture from human volunteers. Peripheral blood mononuclear cells (PBMCs) were isolated using Ficoll-Paque (GE). PBMCs (2×10^6 cells/ml) were incubated for one hour at 37° C. to allow monocytes to adhere. Following removal of non-adherent cells, monocytes were re-suspended and incubated for 7 days in RPMI 1640, 10% FBS, 1% glutamax, 1% penicillin streptomycin, containing 100 ng/ml recombinant human Granulocyte macrophage-colony stimulating factor (GM-CSF) (BioLegend). For infections, cells were detached using accutase (Sigma) and seeded at 2×10^5 cells/well in 48 well plates without antibiotics. Human neutrophils were isolated from citrated whole blood taken from healthy volunteers by venipuncture using Ficoll-Paque (GE) as described previously (McCaw et al., 2003).

O=P(O)(O)OC[C@@H](O)[C@H]1OC(OP(=O)(O)O)[C@@H](O)[C@@H](O)[C@@H]1O (stereo partly drawn) [HBP, D-glycerol-D-manno-heptose-1,7-bisphosphate]
TIFA Thr9 phosphorylation (TIFA [1]): phosphorylated only after treatment with HBP | TIFA oligomerization (TIFA [2]): triggered TIFA oligomerization | Kinetics of NF-κB activation and pro-inflammatory transcriptional response [3]: slower, and persisted longer | Ubiquitin chains in the TIFA-TRAF6 complex (TIFA-TRAF6 interaction; Jurkat cells, TIFA immunoprecipitation, FIG. 17a): Ubiquitin chains could be detected | TIFA-TRAF6 interaction (TIFA-TRAF6 interaction; cells expressing FLAG-TIFA, endogenous TIFA knocked down, FIG. 16a): completely dependent on HBP | Time at which TIFA-TRAF6 interaction was apparent (TIFA-TRAF6 interaction; post treatment, FIG. 16a): 30 min | Activation of THP-1 macrophages in combination with TLR ligands (THP-1 macrophages): synergistically activated THP-1 macrophages | TIFA co-localization with TRAF6 (TIFA [4]; 293T cells, 3 hr, FIG. 16b): co-localized with TRAF6 in distinct foci | Formation of TIFA aggregates co-localized with Lamp2 (TIFA [4]; 293 cells, 4 hr, FIG. 21): induced the formation of large TIFA aggregates | TIFA interaction with TRAF2 (TRAF2): No interaction was observed | IL-8, IL-6 and TNFα production ([5]; 24 hr, FIG. 8a-c): induced IL-8, IL-6, and TNFα production | Th17 polarizing cytokines IL-6 and IL-23 ([5]; primary human macrophages): induced significant amounts
